# Measurements from article PMC5471252, “Anti-leukemia activity of a Hsp70 inhibitor and its hybrid molecules” (Scientific Reports, 2017).
# What was measured:
# [1] = test system: Jurkat cells; experiment: MTT assay, cell viability of Jurkat cells; format: cell-based; conditions: Homo sapiens, 48 h, mean ± s.d., n = 3, read-out: IC50 values of compounds for leukemia cells
# [2] = test system: caspase activity of HL-60 and K562 cells; experiment: Caspase activity assay with Ac-DEVD-pNA in cell lysates; format: cell-based, human; conditions: lysates of cells treated 24 h
# Procedure: Because Az inhibits the association of Hsp70 with Apaf-1, caspase associated proteolytic activities should increase in cells treated with Az. To determine whether this event occurs, caspase activities of HL-60 and K562 cells treated with Az were measured by using the colorimetric substrate, Ac-DEVD-pNA (pNA, p-nitroaniline). […] We also examined whether leukemia cells are protected from the effect of Az by ZVAD-FMK (benzyloxycarbonyl-Val-Ala-Asp(OMe) fluoromethyl ketone, a cell-permeable inhibitor of pan-caspases). HL-60 and K562 cells were pre-incubated with ZVAD-FMK for 3 h and subsequently exposed to Az.
# HL-60 and K562 cells treated with each compound for 24 h were lysed in a buffer containing 50 mM HEPES (pH 7.4), 5 mM CHAPS and 5 mM DTT. Assay buffer containing 20 mM HEPES (pH 7.4), 0.01% CHAPS, 5 mM DTT and 2 mM EDTA was added to cell lysates. Caspase activity was measured in the absence or presence of acetyl-DEVD-pNA (200 μM) (Sigma-Aldrich) by using a microplate reader (monitored at 405 nm).
# [3] = test system: HL-60 and K562 cells; experiment: Flow cytometry, JC-1 mitochondrial membrane potential; format: cell-based, human; conditions: 24 h; 10 µM Az or 4 µM Az-O3-GD
# Procedure: (§1) To determine whether Az promotes leukemia cell death via apoptosis, acute leukemia HL-60 and chronic leukemia K562 cells were independently incubated with Az. The treated cells were then exposed to a mixed solution of fluorescein-annexin V and propidium iodide (PI) and flow cytometry analysis was conducted. […] The size of the treated cells was also assessed by using flow cytometry. […] We also investigated if the mitochondrial membrane potential in cells treated with Az is disrupted. To test this possibility, HL-60 and K562 cells were exposed to Az and subsequently stained with a membrane potential sensitive JC-1 probe. […] This serves as another evidence for apoptosis induced by Az.
# JC-1 staining: HL-60 and K562 cells were treated with each compound and then with 2.5 μg/mL JC-1 (Anaspec) in PBS for 15 min. Flow cytometry was conducted with a BD FACSVerse™ instrument (the red fluorescence signal: λex = 550 nm, λem = 600 nm; the green fluorescence signal: λex = 485 nm, λem = 535 nm) and the data were analyzed using a FlowJo™ software.
# [4] = test system: KG-1 cells; experiment: MTT assay, cell viability of KG-1 cells; format: cell-based; conditions: Homo sapiens, 48 h, mean ± s.d., n = 3, read-out: IC50 values of compounds for leukemia cells
# [5] = test system: Hsp70 level in HL-60 and K562 cells; experiment: Western blot of Hsp70 and Hsp90 levels; format: cell-based, human; conditions: cells treated 24 h
# Procedure: Because Az-O3-GD promotes caspase activation in leukemia cells, it was anticipated that procaspase-9, procaspase-3 and PARP would be cleaved in treated cells. To test this possibility, HL-60 and K562 cells were exposed to Az-O3-GD, along with Az and GD as controls and western blot analysis was then carried out. […] Although Az-O3-GD upregulates Hsp70, the presence of the Hsp70 inhibitor in this hybrid causes its cytotoxicity against leukemia cells to be higher than that of GD. Finally, we examined the effect of Az-O3-GD on AIF-mediated caspase-independent apoptosis. To this end, HL-60 and K562 cells were incubated with Az-O3-GD for 24 h.
# (§2) Western blot analysis. […] peroxidase-conjugated goat anti-rabbit IgG (1:2000, Santa Cruz Bio Technology) and goat anti-mouse IgG (1:2000, Santa Cruz Bio Technology) were used as the secondary antibodies. The blots were developed by using a West-ZOL® plus Western Blot Detection System (Intron Biotechnology Inc., South Korea). Western blot signals were analyzed by using a G:BOX Chemi Fluorescent & Chemiluminescent Imaging System.
# [6] = test system: human leukemia cells (HL-60, KG-1, THP-1, U937, Jurkat and K562 cells); experiment: MTT assay, all tested leukemia cells (summary statements); conditions: all tested leukemia cells, MTT, compared with Az, GD and imatinib
# Procedure: To assess anti-leukemia activity of Az, several human leukemia cells (HL-60 cells, acute myeloid leukemia; Jurkat cells, acute T-lymphocytic leukemia; KG-1 cells, acute myeloid leukemia; U937 cells, acute myeloid leukemia; THP-1 cells, acute monocytic leukemia; K562 cells, chronic myeloid leukemia) were incubated with Az for 48 h. […] An MTT assay was then performed to measure cell viabilities.
# Cells were exposed to each compound (a HCl salt form) at various concentrations for indicated time periods (24 or 48 h) in culture media. MTT assays were conducted according to known procedures. The absorbance at 570 nm was determined by employing a microplate reader (TECAN, Infinite® 200 PRO).
# [7] = test system: THP-1 cells; experiment: MTT assay, cell viability of THP-1 cells; format: cell-based; conditions: Homo sapiens, 48 h, mean ± s.d., n = 3, read-out: IC50 values of compounds for leukemia cells
# [8] = test system: HL-60 and K562 cells; experiment: Flow cytometry, fluorescein-annexin V and PI staining; format: cell-based, human; conditions: 24 h; 10 µM Az, 10 µM GD or 4 µM Az-O3-GD
# Procedure: as §1
# HL-60 and K562 cells were incubated with each compound for 24 h in culture media. Cells were re-suspended with 500 μL binding buffer (10 mM HEPES, […] and 2.5 mM CaCl2, pH 7.5) and then incubated with the FITC-annexin V apoptosis detection kit with PI according to the protocol provided by the manufacturer. Flow cytometry was carried out by using a BD FACSVerse™ instrument (BD Biosciences) and the data were analyzed by using a FlowJo™ software (BD Biosciences).
# [9] = test system: U937 cells; experiment: MTT assay, cell viability of U937 cells; format: cell-based; conditions: Homo sapiens, U-937, 48 h, mean ± s.d., n = 3, read-out: IC50 values of compounds for leukemia cells
# [10] = test system: HL-60 cells; experiment: MTT assay, cell viability of HL-60 cells; format: cell-based; conditions: Homo sapiens, 48 h, mean ± s.d., n = 3, read-out: IC50 values of compounds for leukemia cells
# [11] = test system: AIF translocation in HL-60 and K562 cells; experiment: AIF translocation to the nucleus (western blot, immunocytochemistry); format: cell-based, human; conditions: 24 h; 2 μM for Az-O3-GD
# Excerpt: Apoptosis-inducing factor (AIF) is known to be translocated from the cytosol to the nucleus during caspase-independent apoptosis (Supplementary Fig. S8b)[39]. In addition, it is also known that Hsp70 interacts with AIF directly and this interacting event results in blocking translocation of AIF to the nucleus and, in turn, prevents caspase-independent apoptosis. Because of these phenomena, we tested if Az has an influence on AIF-mediated caspase-independent apoptosis. To probe this issue, HL-60 and K562 cells were exposed to Az and the levels of AIF in the cytosolic and nuclear fractions were then determined. AIF translocation to the nucleus was not observed in Az-treated cells, based on western blot analysis (Fig. 4d). Additional evidence to support this conclusion was obtained from immunocytochemical analysis of leukemia cells treated with Az (Fig. 4d).
# as §2
# Immunocytochemistry. […] Cell images were analyzed using the ZEN 2011 software.
# [12] = test system: K562 cells; experiment: MTT assay, cell viability of K562 cells; format: cell-based; conditions: Homo sapiens, 48 h, mean ± s.d., n = 3, read-out: IC50 values of compounds for leukemia cells
compound,measurement,setting,value
COc1ccc(-c2nc(-c3cc(C(F)(F)F)cc(C(F)(F)F)c3)n(Cc3ccc(C(=O)NCCCOCCOCCOCCCNC4=C5CC(C)CC(OC)C(O)C(C)C=C(C)C(OC(N)=O)C(OC)C=CC=C(C)C(=O)NC(=CC4=O)C5=O)cc3)c2-c2ccc(OC)cc2)cc1 (stereo not drawn) [Az-O3-GD],IC50,[1],570 ± 180 nM
same,caspase activity of treated cells,[2],increase
same,"mitochondrial membrane potential, JC-1 red fluorescence",[3],significant decrease in the intensity of red fluorescence from JC-1
same,IC50,[4],1310 ± 300 nM
same,translational level of Hsp70,[5],upregulation of Hsp70
same,cytotoxicity relative to the individual inhibitors,[6],greatly enhanced cytotoxicities
same,IC50,[7],620 ± 270 nM
same,"apoptosis, annexin V binding and PI uptake",[8],induces apoptosis
same,IC50,[9],1120 ± 440 nM
same,IC50,[10],740 ± 270 nM
same,AIF translocation to the nucleus,[11],does not elicit the translocation of AIF to the nucleus
same,IC50,[12],720 ± 260 nM
